In patent publication US9181262B2, “Crystalline forms of a dipeptidyl peptidase-IV inhibitors” (Merck Sharp & Dohme Corp, priority 2011, dated 2015):
≈ marks a conversion by molar mass, not a printed value.

Legend:
solubility in water = assay type: physicochemical; conditions: crystalline forms of Compound I (anhydrous free base)
[1] = relative stability of crystalline forms (turnover experiments); assay type: physicochemical; conditions: for relative phase stability of the crystalline form: relationship between polymorphs of Compound I
Procedure: Crystalline Form II was produced by re-crystallization of Form I in isopropyl acetate and heptane 1:1 at room temperature. Form II was characterized using XRPD, ssNMR, DSC, TGA and IR. […] 17 hr, IPAc 60° C. for one day, H2O 60° C. over two weeks, three days, NMP-water 1-1 35° C. over three days.

Row | Compound | relative phase stability of the crystalline form [1] | other results
1 | CS(=O)(=O)n1cc2c(n1)CN([C@H]1CO[C@H](c3cc(F)ccc3F)[C@@H](N)C1)C2 [Compound I, (2R,3S,5R)-2-(2,5-Difluorophenyl)-5-[2-(methylsulfonyl)-2,6-dihydropyrrolo[3,4-c]pyrazol-5(4H)-yl]tetrahydro-2H-pyran-3-amine] |  | solubility (solubility in water): ~2000 µg/mL (≈ 5.02 mM)
2 | CS(=O)(=O)n1cc2c(n1)CN([C@H]1CO[C@H](c3cc(F)ccc3F)[C@@H](N)C1)C2 [Form II, (2R,3S,5R)-2-(2,5-Difluorophenyl)-5-[2-(methylsulfonyl)-2,6-dihydropyrrolo[3,4-c]pyrazol-5(4H)-yl]tetrahydro-2H-pyran-3-amine] |  | conversion of Form II into Form I ([1]; turnover experiments with 50-50 seed: DCM-Heptane 25° C., IPAc 25° C. and 60° C., H2O 60° C., NMP-water 1-1 35° C.): slow but observed in all turnover experiments
3 | CS(=O)(=O)n1cc2c(n1)CN([C@H]1CO[C@H](c3cc(F)ccc3F)[C@@H](N)C1)C2 [Form III, (2R,3S,5R)-2-(2,5-Difluorophenyl)-5-[2-(methylsulfonyl)-2,6-dihydropyrrolo[3,4-c]pyrazol-5(4H)-yl]tetrahydro-2H-pyran-3-amine] | metastable to Form I and II | 
4 | CS(=O)(=O)n1cc2c(n1)CN([C@H]1CO[C@H](c3cc(F)ccc3F)[C@@H](N)C1)C2 [Form I, (2R,3S,5R)-2-(2,5-Difluorophenyl)-5-[2-(methylsulfonyl)-2,6-dihydropyrrolo[3,4-c]pyrazol-5(4H)-yl]tetrahydro-2H-pyran-3-amine] | most stable phase above 13 °C | 
5 | CS(=O)(=O)n1cc2c(n1)CN([C@H]1CO[C@H](c3cc(F)ccc3F)[C@@H](N)C1)C2 [Form IV, (2R,3S,5R)-2-(2,5-Difluorophenyl)-5-[2-(methylsulfonyl)-2,6-dihydropyrrolo[3,4-c]pyrazol-5(4H)-yl]tetrahydro-2H-pyran-3-amine] | metastable to Form I and II | 
